Article PMC12257394, “Design, Synthesis, and Biological Evaluation of Ferrocenyl–Cyclo-(Gly‑L‑Pro) Hybrids Sensitizing Multidrug-Resistant Cancer Cells to Anticancer Agents” (ACS Medicinal Chemistry Letters, 2025)
pIC50: −log10 of the molar value.

Tests used:
Type in all cases: cell-based, human
[1] = tested on: SW620D cells (doxorubicin-resistant); experiment: Neutral red uptake viability assay, SW620D; conditions: 72 h; for survival rate: n = 3, ± SD; for pIC50: n = 3, read-out: Cytotoxic activity IC50 (95% CI)
Method: (§1) In general, compounds 4a–e exerted little or no cytotoxic effect on either SW620 or multidrug-resistant sublines even at 10 μM, with the remarkable exception of SW620C (cisplatin-selected variant of SW620) cells, which turned out to be relatively susceptible toward ferrocenyl 4a–c. […] This trend may reflect steric or electronic contributions to cellular uptake or interaction with intracellular targets. […] However, since E/Z isomeric data are currently available only for compound 4c, this hypothesis requires validation. To quantify this effect, IC50 values were determined (Table ). […]
(§2) The normal lung fibroblast MRC-5 and colorectal adenocarcinoma SW620 cell lines used in this experiment were purchased from American Type Culture Collection (USA) via LGC […]
(§3) Standards. Multidrug-resistant variants of SW620 cells were developed in our laboratory as described previously.10, 11 All cells were cultured under standard conditions (37°C, 5% CO2, 100% humidity) in high-glucose DMEM supplemented with GlutaMaxTM, HEPES (ThermoFisher Scientific, USA), and 10% fetal bovine serum (EURx, Poland). Cells were routinely tested for potential Mycoplasma contamination using the MycoProbe Mycoplasma Detection kit (R&D System, USA).
(§4) In total, 104 cells in 100 µL of complete medium were plated per well of a 96-well plate and left overnight to allow cells to adhere to the surface. Then, the cells were exposed to a desired concentration of tested compound(s). Stock solutions were prepared in DMSO and used immediately. The final DMSO concentration was constant and nontoxic (0.1% v/v). After 70-h incubation, neutral red was added to the final concentration of 1 mM. After another 2 h, the medium was aspirated, and cells were washed twice with PBS. Dye was released using 100 µL of a solubilizer (1% acetic acid in 50% ethanol) on an orbital shaker (10 min). Absorbance was read at 540 nm using EnVision Multilabel Plate Reader (Perkin Elmer, USA). Results were expressed as % of control. The IC50 parameters were calculated using GraphPad Prism version 10 (GraphPad Software, Boston, Massachusetts USA).
(§5) The enhancement of reversal potency (ERP) value determination
(§6) For MDR reversal assays, cytotoxic agents were co-administered with compounds 4a–4e at equimolar concentrations in a range of 10 nM to 100 µM. IC₅₀ values were determined in ABCB1-overexpressing SW620 cell line variants. The enhancement of reversal potency (ERP) was calculated using the following formula: ERP = IC₅₀(drug)MDR / IC₅₀(drug + compound)MDR. All experiments were performed in triplicate (n = 3).

MRC-5 fibroblasts = experiment: Neutral red uptake viability assay, MRC-5; conditions: MRC-5, 10 μM, 72 h exposure, n = 3, ± SD
Method: as §2, §3
as §4, with “Massachusetts USA). […]” for “Massachusetts USA).”
(§7) All experiments were performed in triplicate (n = 3).

SW620E cells = experiment: Synergy determination (Bliss model, SynergyFinder), SW620E; conditions: drug etoposide + additive; for synergy score: Bliss model
Text: (§8) In an ideal setting, the effect of cell exposure to a combination of a chemotherapeutic and an MDR inhibitor should be synergistic. […] The highest synergy scores identified an optimal concentration range where the combination exerted its maximal effect. […] In cisplatin-resistant SW620C cells, the low or lack of synergy observed for most compounds may be due to the additive effects of cisplatin and 4 rather than a true synergistic interaction. […]
(§9) To evaluate the potential interactions between putative ABC inhibitors and anticancer drugs, we utilized the Bliss independence model, as implemented in the SynergyFinder web application.13, 14 Synergy scores and the most synergistic area scores were calculated based on the normalized dose–response matrices. A synergy score below −10 indicates likely […]
(§10) above 10 is indicative of likely synergistic interactions.
(§11) All experiments were performed at least three times, and the data were statistically analyzed

[2] = tested on: SW620M cells (methotrexate-resistant); experiment: Neutral red uptake viability assay, SW620M; conditions: 72 h; for survival rate: n = 3, ± SD; for pIC50: n = 3, read-out: Cytotoxic activity IC50 (95% CI)
Method: as §1, §2, §3
as §4, with “Massachusetts USA). […]” for “Massachusetts USA).”
as §7

SW620C cells = experiment: Synergy determination (Bliss model, SynergyFinder), SW620C; conditions: drug cisplatin + additive; for synergy score: Bliss model
Text: as §8, §9, §10, §11

[3] = tested on: SW620V cells (vincristine-resistant); experiment: Neutral red uptake viability assay, SW620V; conditions: 72 h; for survival rate: n = 3, ± SD; for pIC50: n = 3, read-out: Cytotoxic activity IC50 (95% CI)
Method: as §1, §2, §3, §4, §5, §6

SW620 cells = experiment: Synergy determination (Bliss model, SynergyFinder), SW620;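 further: score below −10 means likely antagonism and −10 to 10 means additive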
Text: as §8, §9, §10, §11

[4] = tested on: ABCB1-overexpressing SW620E cells; experiment: MDR reversal assay (ERP), SW620E; conditions: for ERP value, etoposide + compound: SW620E (xlsx); for ERP = IC50(drug)MDR/IC50(drug+4)MDR: etoposide, SW620E
Text: (§12) We investigated the potency of 4a–e to inhibit ABC transporters (ABCB1, ABCC1, and ABCG2) by determining their enhancement of reversal potency (ERP) values. ERP represents fold changes in the IC50 values of anticancer drugs in multidrug-resistant cancer sublines (ABCB1-overexpressing SW620D, SW620E, and SW620V; ABCC1-overexpressing SW620M; ABCG2-overexpressing SW620C and SW620Mito) exposed to a combination of the investigated compounds and anticancer agents at equimolar concentrations, compared with values obtained with drugs alone (Tables S2 and S3 and Figure ).
as §3, §4, §5, §6

[5] = tested on: ABCC1-overexpressing SW620M cells; experiment: MDR reversal assay (ERP), SW620M; conditions: for ERP value, methotrexate + compound: SW620M (xlsx); for ERP = IC50(drug)MDR/IC50(drug+4)MDR: methotrexate, SW620M
Text: as §12, §3, §4, §5, §6

[6] = tested on: SW620Mito cells (mitoxantrone-resistant); experiment: Neutral red uptake viability assay, SW620Mito; conditions: 72 h; for survival rate: n = 3, ± SD; for pIC50: n = 3, read-out: Cytotoxic activity IC50 (95% CI)
Method: as §1, §2, §3
as §4, with “Massachusetts USA). […]” for “Massachusetts USA).”
as §7

Row | SMILES | survival rate ([1]; 1 μM) [%] | survival rate ([1]; 10 μM) [%] | pIC50 [1] | survival rate (MRC-5 fibroblasts) [%] | most synergistic area score (SW620E cells) | synergy score (SW620E cells) | survival rate ([2]; 1 μM) [%] | survival rate ([2]; 10 μM) [%] | pIC50 [2] | most synergistic area score (SW620C cells) | synergy score (SW620C cells) | survival rate ([3]; 1 μM) [%] | survival rate ([3]; 10 μM) [%] | pIC50 [3] | synergy score (in parentheses) (SW620 cells; drug cisplatin + additive) | synergy score (in parentheses) (SW620 cells; drug doxorubicin + additive) | synergy score (in parentheses) (SW620 cells; drug etoposide + additive) | synergy score (in parentheses) (SW620 cells; drug methotrexate + additive) | synergy score (in parentheses) (SW620 cells; drug mitoxantrone + additive) | ERP value, etoposide + compound [4] | also measured
1 | O=C1N/C(=C\[c-]2cccc2)C(=O)N2CCC[C@@H]12.[Fe+2].c1cc[cH-]c1 [(S,Z)-4a] | 96 ± 4.8 | 93 ± 1.1 | < 4.00 | 106 ± 13 | 28.26 | 12.44 | 93 ± 0.9 | 98 ± 2.3 | < 4.00 | 4.33 | –2.62 | 94 ± 0.7 | 94 ± 2.5 | < 4.00 | −4.74 | −4.15 | −4.45 | −5.99 | −1.66 | 5.61 | synergy score (in parentheses) (SW620 cells; drug vincristine + additive): −0.36; ERP = IC50(drug)MDR/IC50(drug+4)MDR [4]: 5.61; ERP value, methotrexate + compound [5]: 1.17; ERP = IC50(drug)MDR/IC50(drug+4)MDR [5]: 1.17; survival rate ([6]; 1 μM): 98 ± 2.0%; survival rate ([6]; 10 μM): 90 ± 3.1%; pIC50 [6]: < 4.00
2 | O=C1N/C(=C/c2cccc(-[c-]3cccc3)c2)C(=O)N2CCC[C@@H]12.[Fe+2].c1cc[cH-]c1 [(S,E)-4c] | 95 ± 1.5 | 95 ± 4.5 | < 4.00 | 110 ± 10 | 1.22 | –4.06 | 93 ± 1.8 | 96 ± 4.6 | < 4.00 | 8.86 | 0.39 | 96 ± 1.8 | 94 ± 0.8 | < 4.00 | −4.66 | −1.89 | −4.80 | −4.31 | 0.86 | 0.87 | ERP = IC50(drug)MDR/IC50(drug+4)MDR [4]: 0.87; ERP value, methotrexate + compound [5]: 1.16; ERP = IC50(drug)MDR/IC50(drug+4)MDR [5]: 1.16; survival rate ([6]; 1 μM): 94 ± 3.5%; survival rate ([6]; 10 μM): 94 ± 1.1%; pIC50 [6]: < 4.00
